Values after ≈ are worked out from the molar mass of the structure shown. Non-standard residues stand in square brackets, D forms with d. Residues, ends and D or L forms follow the SMILES beside them. Ala(cPr) = N[C@@H](CC1CC1)C(=O)O; Cha = N[C@@H](CC1CCCCC1)C(=O)O; Tle = CC(C)(C)[C@H](N)C(=O)O; dDab = NCC[C@@H](N)C(=O)O; Nle = CCCC[C@H](N)C(=O)O; Dab = NCC[C@H](N)C(=O)O
Tests used:
P. aeruginosa ATCC 27853 = format: cell-based, Pseudomonas aeruginosa; conditions: ATCC 27853
Outline: (§1)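 Peptide activity was measured by a modified NCCLS broth microdilution method in Mueller-Hinton broth with 0.02% BSA. An inoculum adjusted against a 0.5 McFarland standard to about 10^6 CFU/ml was mixed 1:1 with two-fold serial peptide dilutions.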

[1] = test system: Pseudomonas aeruginosa IMP 1 Livermore 3140; format: cell-based; conditions: IMP 1 Livermore 3140
Outline: as §1

[2] = test system: Pseudomonas aeruginosa P1021903; format: cell-based; conditions: P1021903
Outline: as §1

[3] = test system: Pseudomonas aeruginosa P1021913; format: cell-based; conditions: P1021913
Outline: as §1

[4] = test system: Pseudomonas aeruginosa P8191900; format: cell-based; conditions: P8191900
Outline: as §1

HELA cells (Acc57) = assay: Cytotoxicity assay, MTT reduction (LC 50, GI 50); format: cell-based
Outline: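 HeLa cells seeded at 7.0×10^3 cells/well, grown 24 h, then exposed to peptides at 12.5, 25 and 50 μM in triplicate for 48 h at 37 °C; MTT (0.5 mg/ml, 2 h), A595 read. Percent growth was taken relative to time-zero plates; LC50 and GI50 were interpolated by linear trend at −50% and 50% growth.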

[5] = test system: human red blood cells (hRBC); assay: Hemolysis; format: cell-based; conditions: 100

| Compound | MIC P. aeruginosa ATCC 27853 (P. aeruginosa ATCC 27853) | MIC P. aeruginosa IMP1 Livermore 3140 [1] | MIC P. aeruginosa P1021903 [2] | MIC P. aeruginosa P1021913 [3] | MIC P. aeruginosa P8191900 [4] | Average MIC (P. aeruginosa) | Cytotoxicity GI50 Hela cells (HELA cells (Acc57)) | Hemolysis at 100 μg/ml [5] |
| --- | --- | --- | --- | --- | --- | --- | --- | --- |
| CC[C@H](C)[C@@H]1NC(=O)[C@H](Cc2c[nH]c3ccccc23)NC(=O)[C@H]([C@@H](C)O)NC(=O)[C@@H]2CCCN2C(=O)[C@H]2CCCN2C(=O)[C@H](CCN)NC(=O)[C@H](CC2CC2)NC(=O)[C@H](CCN)NC(=O)[C@H](CCN)NC(=O)[C@H](Cc2c[nH]c3ccccc23)NC(=O)[C@H](CCN)NC(=O)[C@H](CCN)NC(=O)[C@H](CCCCN)NC(=O)[C@H](CCN)NC1=O [Example 37] (cyclo(TWI[Dab]K[Dab][Dab]W[Dab][Dab][Ala(cPr)][Dab][dP]P)) | 0.06 µg/mL (≈ 0.037 µM) | 1.17 µg/mL (≈ 0.722 µM) | 0.31 µg/mL (≈ 0.191 µM) | 0.37 µg/mL (≈ 0.228 µM) | 0.18 µg/mL (≈ 0.111 µM) | 0.42 µg/mL | 50 µM | 0.5% |
| CC[C@H](C)[C@@H]1NC(=O)[C@H](Cc2c[nH]c3ccccc23)NC(=O)[C@H](CCC(=O)O)NC(=O)[C@@H]2CCCN2C(=O)[C@H]2CCCN2C(=O)[C@H](CCC(N)=O)NC(=O)[C@H](C)NC(=O)[C@H](CCN)NC(=O)[C@H](CCN)NC(=O)[C@H](Cc2c[nH]c3ccccc23)NC(=O)[C@H](CCN)NC(=O)[C@@H](CCN)NC(=O)[C@H](CCCCN)NC(=O)[C@H](CCN)NC1=O [Example 45] (cyclo(EWI[Dab]K[dDab][Dab]W[Dab][Dab]AQ[dP]P)) | 0.25 µg/mL (≈ 0.153 µM) | 1.00 µg/mL (≈ 0.611 µM) | 0.50 µg/mL (≈ 0.305 µM) | 1.00 µg/mL (≈ 0.611 µM) | 0.50 µg/mL (≈ 0.305 µM) | 0.65 µg/mL | 50 µM | 0.2% |
| CC[C@H](C)[C@@H]1NC(=O)[C@H](Cc2c[nH]c3ccccc23)NC(=O)[C@H]([C@@H](C)O)NC(=O)[C@@H]2CCCN2C(=O)[C@H]2CCCN2C(=O)[C@H](CCN)NC(=O)[C@H](C(C)(C)C)NC(=O)[C@H](CCN)NC(=O)[C@H](CCN)NC(=O)[C@H](Cc2c[nH]c3ccccc23)NC(=O)[C@H](CCN)NC(=O)[C@H](CCN)NC(=O)[C@H](CCCCN)NC(=O)[C@H](CCN)NC1=O [Example 36] (cyclo(TWI[Dab]K[Dab][Dab]W[Dab][Dab][Tle][Dab][dP]P)) | 0.06 µg/mL (≈ 0.037 µM) | 0.43 µg/mL (≈ 0.265 µM) | 0.18 µg/mL (≈ 0.111 µM) | 0.24 µg/mL (≈ 0.148 µM) | 0.18 µg/mL (≈ 0.111 µM) | 0.22 µg/mL | 50 µM | 0.1% |
| CC[C@H](C)[C@@H]1NC(=O)[C@H](Cc2c[nH]c3ccccc23)NC(=O)[C@H]([C@@H](C)O)NC(=O)[C@@H]2CCCN2C(=O)[C@H]2CCCN2C(=O)[C@H](CCN)NC(=O)[C@H](C)NC(=O)[C@H](CCN)NC(=O)[C@H](CCN)NC(=O)[C@H](Cc2c[nH]c3ccccc23)NC(=O)[C@H](CCN)NC(=O)[C@@H](CCN)NC(=O)[C@H](CCCCN)NC(=O)[C@H](CCN)NC1=O [Example 41] (cyclo(TWI[Dab]K[dDab][Dab]W[Dab][Dab]A[Dab][dP]P)) | 0.02 µg/mL (≈ 0.0127 µM) | 0.25 µg/mL (≈ 0.158 µM) | 0.03 µg/mL (≈ 0.019 µM) | 0.25 µg/mL (≈ 0.158 µM) | 0.05 µg/mL (≈ 0.0316 µM) | 0.12 µg/mL | 50 µM | 0.2% |
| CC[C@H](C)[C@@H]1NC(=O)[C@H](Cc2c[nH]c3ccccc23)NC(=O)[C@H]([C@@H](C)O)NC(=O)[C@@H]2CCCN2C(=O)[C@H]2CCCN2C(=O)[C@H](CCN)NC(=O)[C@H](C)NC(=O)[C@H](CCN)NC(=O)[C@H](CCN)NC(=O)[C@H](Cc2c[nH]c3ccccc23)NC(=O)[C@H](CCCCN)NC(=O)[C@H](CCN)NC(=O)[C@H](CCCCN)NC(=O)[C@H](CCN)NC1=O [Example 26] (cyclo(TWI[Dab]K[Dab]KW[Dab][Dab]A[Dab][dP]P)) | 0.08 µg/mL (≈ 0.0497 µM) | 0.40 µg/mL (≈ 0.249 µM) | 0.13 µg/mL (≈ 0.0808 µM) | 0.18 µg/mL (≈ 0.112 µM) | 0.30 µg/mL (≈ 0.186 µM) | 0.22 µg/mL | 50 µM | 0.8% |
| C[C@@H]1NC(=O)[C@H](CCN)NC(=O)[C@H](CCN)NC(=O)[C@H](Cc2c[nH]c3ccccc23)NC(=O)[C@H](CCN)NC(=O)[C@H](CCN)NC(=O)[C@H](CCCCN)NC(=O)[C@H](CCN)NC(=O)[C@H](CC2CCCCC2)NC(=O)[C@H](Cc2c[nH]c3ccccc23)NC(=O)[C@H]([C@@H](C)O)NC(=O)[C@@H]2CCCN2C(=O)[C@H]2CCCN2C(=O)[C@H](CCN)NC1=O [Example 34] (cyclo(TW[Cha][Dab]K[Dab][Dab]W[Dab][Dab]A[Dab][dP]P)) | 0.05 µg/mL (≈ 0.0308 µM) | 0.60 µg/mL (≈ 0.37 µM) | 0.29 µg/mL (≈ 0.179 µM) | 0.48 µg/mL (≈ 0.296 µM) | 0.24 µg/mL (≈ 0.148 µM) | 0.33 µg/mL | 50 µM | 0% |
| CC[C@H](C)[C@@H]1NC(=O)[C@H](Cc2c[nH]c3ccccc23)NC(=O)[C@H]([C@@H](C)O)NC(=O)[C@@H]2CCCN2C(=O)[C@H]2CCCN2C(=O)[C@H](CCN)NC(=O)[C@@H](C)NC(=O)[C@H](CCN)NC(=O)[C@H](CCN)NC(=O)[C@H](Cc2c[nH]c3ccccc23)NC(=O)[C@H](CCN)NC(=O)[C@H](CCN)NC(=O)[C@H](CCCCN)NC(=O)[C@H](CCN)NC1=O [Example 3] (cyclo(TWI[Dab]K[Dab][Dab]W[Dab][Dab][dA][Dab][dP]P)) | 0.09 µg/mL (≈ 0.0569 µM) | 2.0 µg/mL (≈ 1.27 µM) | 0.30 µg/mL (≈ 0.19 µM) | 0.31 µg/mL (≈ 0.196 µM) | 0.30 µg/mL (≈ 0.19 µM) | 0.6 µg/mL | 34 µM | 0.6% |

Second part, led by results:

| MIC P. aeruginosa ATCC 27853 (P. aeruginosa ATCC 27853) | MIC P. aeruginosa IMP1 Livermore 3140 [1] | MIC P. aeruginosa P1021903 [2] | MIC P. aeruginosa P1021913 [3] | MIC P. aeruginosa P8191900 [4] | Average MIC (P. aeruginosa) | Compound | Cytotoxicity GI50 Hela cells (HELA cells (Acc57)) | Hemolysis at 100 μg/ml [5] |
| --- | --- | --- | --- | --- | --- | --- | --- | --- |
| 0.03 µg/mL (≈ 0.019 µM) | 0.24 µg/mL (≈ 0.152 µM) | 0.40 µg/mL (≈ 0.253 µM) | 0.16 µg/mL (≈ 0.101 µM) | 0.16 µg/mL (≈ 0.101 µM) | 0.20 µg/mL | CCCC[C@@H]1NC(=O)[C@H](Cc2c[nH]c3ccccc23)NC(=O)[C@H]([C@@H](C)O)NC(=O)[C@@H]2CCCN2C(=O)[C@H]2CCCN2C(=O)[C@H](CCN)NC(=O)[C@H](C)NC(=O)[C@H](CCN)NC(=O)[C@H](CCN)NC(=O)[C@H](Cc2c[nH]c3ccccc23)NC(=O)[C@H](CCN)NC(=O)[C@H](CCN)NC(=O)[C@H](CCCCN)NC(=O)[C@H](CCN)NC1=O [Example 31] (cyclo(TW[Nle][Dab]K[Dab][Dab]W[Dab][Dab]A[Dab][dP]P)) | 50 µM | 0.5% |
| 1.00 µg/mL (≈ 0.645 µM) | >2 µg/mL | 1.50 µg/mL (≈ 0.967 µM) | 1.25 µg/mL (≈ 0.806 µM) | 1.00 µg/mL (≈ 0.645 µM) | >1 µg/mL | CC[C@H](C)[C@@H]1NC(=O)[C@H](Cc2c[nH]c3ccccc23)NC(=O)[C@H](C)NC(=O)[C@@H]2CCCN2C(=O)[C@H]2CCCN2C(=O)[C@H](CCN)NC(=O)[C@H](C(C)C)NC(=O)[C@H](CCN)NC(=O)[C@H](CCN)NC(=O)[C@H](Cc2c[nH]c3ccccc23)NC(=O)[C@H](CCN)NC(=O)[C@H](CCN)NC(=O)[C@H](CCN)NC(=O)[C@H](CCN)NC1=O [Example 23] (cyclo(AWI[Dab][Dab][Dab][Dab]W[Dab][Dab]V[Dab][dP]P)) | 13 µM | 0.5% |
| 0.21 µg/mL (≈ 0.135 µM) | 1.25 µg/mL (≈ 0.802 µM) | 0.21 µg/mL (≈ 0.135 µM) | 0.31 µg/mL (≈ 0.199 µM) | 0.40 µg/mL (≈ 0.257 µM) | 0.48 µg/mL | CC[C@H](C)[C@@H]1NC(=O)[C@H](Cc2c[nH]c3ccccc23)NC(=O)[C@H]([C@@H](C)O)NC(=O)[C@@H]2CCCN2C(=O)[C@H]2CCCN2C(=O)[C@H](CCN)NC(=O)[C@H](C)NC(=O)[C@H](CCN)NC(=O)[C@H](CCN)NC(=O)[C@H](Cc2ccc(O)cc2)NC(=O)[C@H](CCN)NC(=O)[C@H](CCN)NC(=O)[C@H](CCCCN)NC(=O)[C@H](CCN)NC1=O [Example 20] (cyclo(TWI[Dab]K[Dab][Dab]Y[Dab][Dab]A[Dab][dP]P)) | 50 µM | 0.2% |

From patent US9521846B2, “Template-fixed peptidomimetics with antimicrobial activity” (priority 2006, dated 2016)
